# Measured values: patent US20140329682A1, “METHOD OF CONTROLLING WEED IN A SUGAR CANE FIELD” (SUMITOMO CHEMICAL COMPANY, LIMITED, priority 2011, published 2014)
# Columns and labels:
# Format in all cases: in vivo
# [1] = tested on: Amaranthus retroflexus; assay: Herbicidal activity, soil surface spray after planting (Example 4); details: 3 cm stem cutting, one node, soil surface spray on date of planting, four weeks after treatment
# Experimental: A 30 cm to 40 cm stem cutting of sugar cane is placed on a wet soil, and germination is stimulated. The stem cutting from which a bud has grown to about 1 cm is selected, and the length of the stem cutting is adjusted to be 3 cm so that the stem cutting has one node. A soil is packed into a plastic pot, and seeds of Amaranthus retroflexus are seeded thereon. The stem cutting of sugar cane is planted in the soil packed in the pot at a depth of 2 cm. […] Thereafter, the pot for a test is placed in a greenhouse.
# [2] = tested on: Amaranthus retroflexus; assay: Herbicidal activity, spray above weed one week before planting (Example 5); details: sprayed above weed three weeks after seeding, 3 cm stem cutting planted one week after treatment, four weeks after treatment
# Experimental: (§1) A soil is packed into a plastic pot, and seeds of Amaranthus retroflexus are seeded thereon. Thereafter, the pot is placed in a greenhouse, and the weed is grown.
# A 30 cm to 40 cm stem cutting of sugar cane is placed on a wet soil, and germination is stimulated. The stem cutting from which a bud has been grown to about 1 cm is selected, and the length of the stem cutting is adjusted to be 3 cm so that the stem cutting has one node.
# (§2) The pot for a test is placed in a greenhouse.
# [3] = tested on: Amaranthus retroflexus; assay: Herbicidal activity, soil surface spray, insecticide-treated stem cutting (Example 6); details: 3 cm stem cutting treated with clothianidin, thiamethoxiam, imidacloprid, dinotefuran, nitenpyram, acetamiprid or thiacloprid, four weeks after treatment
# Experimental: A 30 cm to 40 cm stem cutting of sugar cane is placed on a wet soil, and germination is stimulated. The stem cutting from which a bud has grown to about 1 cm is selected, and the length of the stem cutting is adjusted to be 3 cm so that the stem cutting has one node. Clothianidin, thiamethoxiam, imidacloprid, dinotefuran, nitenpyram, acetamiprid or thiacloprid is adhered to the stem cutting. A soil is packed into a plastic pot, and seeds of Amaranthus retroflexus are seeded thereon. The stem cutting of sugar cane treated with clothianidin, thiamethoxiam, imidacloprid, dinotefuran, nitenpyram, acetamiprid or thiacloprid is planted in the soil packed into the pot at a depth of 2 cm. […] Thereafter, the pot for a test is placed in a greenhouse.
# [4] = tested on: Amaranthus retroflexus; assay: Herbicidal activity, spray above weed before planting, insecticide-treated stem cutting (Example 7); details: sprayed above weed, 3 cm stem cutting treated with clothianidin, thiamethoxiam, imidacloprid, dinotefuran, nitenpyram, acetamiprid or thiacloprid planted one week after treatment, four weeks after treatment
# Experimental: as §1
# A 30 cm to 40 cm stem cutting of sugar cane is placed on a wet soil, and germination is stimulated. The stem cutting from which a bud has grown to about 1 cm is selected, and the length of the stem cutting is adjusted to be 3 cm so that the stem cutting has one node. Clothianidin, thiamethoxiam, imidacloprid, dinotefuran, nitenpyram, acetamiprid or thiacloprid is adhered to the stem cutting.
# as §2
# [5] = tested on: Amaranthus retroflexus; assay: Herbicidal activity, soil surface spray, strobilurin-treated stem cutting (Example 8); details: 3 cm stem cutting treated with kresoxim-methyl, azoxystrobin or another listed strobilurin fungicide, four weeks after treatment
# Excerpt: A 30 cm to 40 cm stem cutting of sugar cane is placed on a wet soil, and germination is stimulated. The stem cutting from which a bud has grown to about 1 cm is selected, and the length of the stem cutting is adjusted to be 3 cm so that the stem cutting has one node. Kresoxim-methyl, azoxystrobin, trifloxystrobin, fluoxastrobin, picoxystrobin, pyraclostrobin, dimoxystrobin, pyribencarb, metominostrobin, orysastrobin, enestrobin, pyraoxystrobin or pyrametostrobin is adhered to the stem cutting. A soil is packed into a plastic pot, and seeds of Amaranthus retroflexus are seeded thereon. The stem cutting of sugar cane treated with kresoxim-methyl, azoxystrobin, trifloxystrobin, fluoxastrobin, picoxystrobin, pyraclostrobin, dimoxystrobin, pyribencarb, metominostrobin, orysastrobin, enestrobin, pyraoxystrobin or pyrametostrobin is planted in the soil packed into the pot at a depth of 2 cm. […] Thereafter, the pot for a test is placed in a greenhouse.
# [6] = tested on: Amaranthus retroflexus; assay: Herbicidal activity, spray above weed before planting, strobilurin-treated stem cutting (Example 9); details: sprayed above weed, 3 cm stem cutting treated with kresoxim-methyl, azoxystrobin or another listed strobilurin fungicide planted one week after treatment, four weeks after treatment
# Experimental: as §1
# A 30 cm to 40 cm stem cutting of sugar cane is placed on a wet soil, and germination is stimulated. The stem cutting from which a bud has grown to about 1 cm is selected, and the length of the stem cutting is adjusted to be 3 cm so that the stem cutting has one node. Kresoxim-methyl, azoxystrobin, trifloxystrobin, fluoxastrobin, picoxystrobin, pyraclostrobin, dimoxystrobin, pyribencarb, metominostrobin, orysastrobin, enestrobin, pyraoxystrobin or pyrametostrobin is adhered to the stem cutting.
# as §2
# [7] = tested on: Amaranthus retroflexus; assay: Herbicidal activity, soil surface spray, azole-fungicide-treated stem cutting (Example 10); details: 3 cm stem cutting treated with azaconazole, bitertanol or another listed azole-type fungicide, four weeks after treatment
# Excerpt: A 30 to 40 cm stem cutting of sugar cane is placed on a wet soil, and germination is stimulated. The stem cutting from which a bud has grown to about 1 cm is selected, and the length of the stem cutting is adjusted to be 3 cm so that the stem cutting has one node. Azaconazole, bitertanol, bromoconazole, cyproconazole, difenoconazole, diniconazole, epoxyconazole, fenbuconazole, fluquinconazole, flusilazole, flutriafol, hexaconazole, imibenconazole, ipconazole, metconazole, myclobutanil, penconazole, propiconazole, prothioconazole, simeconazole, tebuconazole, tetraconazole, triadimenol, triticonazole, fenarimol, nuarimol, pyrifenox, imazalil, oxpoconazole fumarate, pefurazoate, procloraz or triflumizole is adhered to the stem cutting. A soil is packed into a plastic pot, and seeds of Amaranthus retroflexus are seeded thereon. The stem cutting of sugar cane treated with azaconazole, bitertanol, bromoconazole, cyproconazole, difenoconazole, diniconazole, epoxyconazole, fenbuconazole, fluquinconazole, flusilazole, flutriafol, hexaconazole, imibenconazole, ipconazole, metconazole, myclobutanil, penconazole, propiconazole, prothioconazole, simeconazole, tebuconazole, tetraconazole, triadimenol, triticonazole, fenarimol, nuarimol, pyrifenox, imazalil, oxpoconazole fumarate, pefurazoate, procloraz or triflumizole is planted in the soil packed into the pot at a depth of 2 cm. […] Thereafter, the pot for a test is placed in a greenhouse.
# [8] = tested on: Amaranthus retroflexus; assay: Herbicidal activity, spray above weed before planting, azole-fungicide-treated stem cutting (Example 11); details: sprayed above weed, 3 cm stem cutting treated with azaconazole, bitertanol or another listed azole-type fungicide planted one week after treatment, four weeks after treatment
# Experimental: A soil is packed into a plastic pat, and seeds of Amaranthus retroflexus are seeded thereon. Thereafter, the pot is placed in a greenhouse, and the weed is grown.
# A 30 cm to 40 cm stem cutting of sugar cane is placed on a wet soil, and germination is stimulated. The stem cutting from which a bud has grown to about 1 cm is selected, and the length of the stem cutting is adjusted to be 3 cm so that the stem cutting has one node.
# as §2
# [9] = tested on: Amaranthus retroflexus; assay: Herbicidal activity, soil surface spray, metalaxyl-treated stem cutting (Example 12); details: 3 cm stem cutting treated with metalaxyl or metalaxyl-M, four weeks after treatment
# Experimental: A soil is packed into a plastic pot. Seeds of Amaranthus retroflexus are seeded thereon.
# [10] = tested on: Amaranthus retroflexus; assay: Herbicidal activity, spray above weed before planting, metalaxyl-treated stem cutting (Example 13); details: sprayed above weed, 3 cm stem cutting treated with metalaxyl or metalaxyl-M planted one week after treatment, four weeks after treatment
# Experimental: A soil is packed into a plastic pot, and seeds of Amaranthus retroflexus are seeded thereon. Thereafter, a pot is placed in a greenhouse, and the weed is grown.
# A 30 cm to 40 cm stem cutting of sugar cane is placed on a wet soil, and germination is stimulated. The stem cutting from which a bud has grown to about 1 cm is selected, and the length of the stem cutting is adjusted to be 3 cm so that the stem cutting has one node. Metalaxyl or metalaxyl-M is adhered to the stem cutting.
# as §2
smiles,measurement,setting,value
CS(=O)(=O)NC(=O)c1cc(Oc2ccc(C(F)(F)F)cc2Cl)ccc1[N+](=O)[O-] [fomesafen],herbicidal activity against Amaranthus retroflexus,[1],the controlling effect on a weed can be confirmed
same,herbicidal activity against Amaranthus retroflexus,[2],the controlling effect on a weed can be confirmed
same,herbicidal activity against Amaranthus retroflexus,[3],the controlling effect on a weed can be confirmed
same,herbicidal activity against Amaranthus retroflexus,[4],the controlling effect on a weed can be confirmed
same,herbicidal activity against Amaranthus retroflexus,[5],the controlling effect on a weed can be confirmed
same,herbicidal activity against Amaranthus retroflexus,[6],the controlling effect on a weed can be confirmed
same,herbicidal activity against Amaranthus retroflexus,[7],the control effect on a weed can be confirmed
same,herbicidal activity against Amaranthus retroflexus,[8],the controlling effect on a weed can be confirmed
same,herbicidal activity against Amaranthus retroflexus,[9],the controlling effect on a weed can be confirmed
same,herbicidal activity against Amaranthus retroflexus,[10],the controlling effect on a weed can be confirmed
